26 compounds from US12679801B2, “Amino lipid and preparation method and application thereof” (Shenzhen MagicRNA Biotechnology Co., Ltd., priority 2022, dated 2026) can be followed below.

The test has as its system BMDC primary cells. In words: Luc mRNA LNP transfection on BMDC primary cells (Embodiment 21, Table 9). Format: cell-based, C57BL/6 mice. Conditions: 16 h, ONE-Glo Luciferase. Here is the method:
Preparation method: the same as that in Embodiment 17.
Animal preparation: 6-week-old female C57BL/6 mice with the body weight about 20 g were selected. A feeding environment was an SPF stage feeding room. Animal tests were strictly performed according to the guide of the national health institute and the animal ethics requirements.
Cell acquisition: C57BL/6 mice were killed through cervical dislocation, and were soaked for 5 min in 75% ethyl alcohol. Dissection was performed to obtain thigh and calf tibiae of the mice. Attached muscles were removed to expose sclerotin. Then, bone marrow in tibiae was blown out by using a 1 mL injector sucked with PBS. After the bone marrow was blown away, impurities were filtered away by a 50 μm filter screen. A red blood cell lysis buffer (3-4 mL) was added into an obtained filtrate. Then, after placement for 5 min, 800 g centrifugation was performed for 5 min to remove a supernatant. The obtained cells were placed into a 1640 culture medium (containing 10% fetal calf serum, 20 ng/mL GMCSF and 10 ng/mL IL4) to be resuspended, and were inoculated into a 6-well plate at an inoculation density of 100000 cells/ml culture medium. The materials were placed into a 37° C. cell incubator containing 5% CO2. Half liquid change was performed once every 2 days. Suspended cells and loose wall attached cells were collected on the seventh day, and were inoculated to a 96-well all-white ELISA plate at the inoculation density of 20000 cells per well, and the volume of a culture medium was 100 μL.
Cell transfection: lipid nanoparticles coated with luciferase mRNA were added into a 96-well white ELISA plate laid with primary cells. The adding volume of the mRNA lipid nanoparticles in each well was controlled to be 10 μL. Then, the materials were put into a 37° C. incubator containing 5% CO2 for 16 h.
Transfection efficiency detection: 20 μL of a substrate ONE-Glo™ Luciferase was added into each well of a 96-well all-white ELISA plate, and after 1 min, detection was performed by a multifunctional or multimode microplate reader.

`CCCCCCCCCCCC(COC(=O)C(CCCCC)CCCCCCCCC)OC(=O)CCCN(C)C` (centres unmarked) [E8C109A9] gave a Luciferase luminescence intensity of 4.8E+04.
`CCCCCCCCCCCCC(COC(=O)C(CCCC)CCCCCCCCCC)OC(=O)CCCCN(C)C` (centres unmarked) [E9C104A11] registered a Luciferase luminescence intensity of 4.4E+04.
`CCCCCCCCCCCC(COC(=O)CC(CCCCC)CCCCCCCCC)OC(=O)CCCCN(C)C` (centres unmarked) [E8C123A11] came in with a Luciferase luminescence intensity of 7.1E+04.
Next, `CCCCCCCCCCCCCC(COC(=O)C(CCCCCCCC)CCCCCCCC)OC(=O)CCCCN(C)C` (centres unmarked) [E10C115A11]: 8.2E+04; `CCCCCCCCCCCCCCC(COC(=O)C(CCCCCCC)CCCCCCC)OC(=O)CCCN(C)C` (centres unmarked) [E11C114A9]: 4.5E+04; `CCCCCCCCCCCCCCC(COC(=O)C(CCCCC)CCCCCCCCC)OC(=O)CCCCN(C)C` (centres unmarked) [E11C109A11]: 4.8E+04.
The figure for `CCCCCCCCCCCC(COC(=O)CC(CCCCCCC)CCCCCCC)OC(=O)CCCN(C)C` (centres unmarked) [E8C128A9] is 3.9E+04; for `CCCCCCCCCCC(COC(=O)CC(CCCCCC)CCCCCCCC)OC(=O)CCCCN(C)C` (centres unmarked) [E7C126A11] it is 3.9E+04.
With `CCCCCCCCC(COC(=O)C(CCCCCCCC)CCCCCCCC)OC(=O)CCCCN(C)C` (centres unmarked) [E5C115A11], the Luciferase luminescence intensity is given as 1.1E+05.
`CCCCCCCCCCCC(COC(=O)CC(CCCCCCC)CCCCCCC)OC(=O)CCCCN(C)C` (centres unmarked) [E8C128A11] displayed a Luciferase luminescence intensity of 3.5E+04.
The compound `CCCCCCCCCCCCCCC(COC(=O)C(CCCCC)CCCCCCCCC)OC(=O)CCCN(C)C` (centres unmarked) [E11C109A9] registered a Luciferase luminescence intensity of 4.3E+04.
In turn, `CCCCCCCCCC(CCCCCCCCC)C(=O)OCC(CCCCCC)OC(=O)CCCCN(C)C` (centres unmarked) [E3C116A11] displayed a Luciferase luminescence intensity of 4.4E+04.
`CCCCCCCCCCCCC(COC(=O)C(CCCCC)CCCCCCCCC)OC(=O)CCCN(C)C` (centres unmarked) [E9C109A9]: the Luciferase luminescence intensity worked out at 3.6E+04.
The figure for `CCCCCCCCCC(CCCCCCCCC)C(=O)OCC(CCCCCCCC)OC(=O)CCCCN(C)C` (centres unmarked) [E5C116A11] is 6.2E+04.
Compound `CCCCCCCCC(COC(=O)CC(CCCCCCC)CCCCCCC)OC(=O)CCCCN(C)C` (centres unmarked) [E5C128A11] showed a Luciferase luminescence intensity of 4.3E+04.
`CCCCCCCCCCCC(COC(=O)C(CCCCCCC)CCCCCCC)OC(=O)CCCCN(C)C` (centres unmarked) [E8C114A11]: the Luciferase luminescence intensity amounted to 1.3E+05.
Next, `CCCCCCCCC(COC(=O)C(CCCCCCC)CCCCCCC)OC(=O)CCCCN(C)C` (centres unmarked) [E5C114A11]: 4.6E+04; `CCCCCCCCCCCCC(COC(=O)CC(CCCCCCC)CCCCCCC)OC(=O)CCCCN(C)C` (centres unmarked) [E9C128A11]: 3.5E+04; `CCCCCCCCCCCCC(COC(=O)C(CCCCC)CCCCCCCCCCC)OC(=O)CCCCN(C)C` (centres unmarked) [E9C111A11]: 3.9E+04.
Regarding `CCCCCCCCCCCCC(COC(=O)C(CCCCCCC)CCCCCCC)OC(=O)CCCCN(C)C` (centres unmarked) [E9C114A11], the Luciferase luminescence intensity turned out to be 8.5E+04.
Consider `CCCCCCCCCCCCC(COC(=O)C(CCCCCCCCC)CCCCCCCCC)OC(=O)CCCCN(C)C` (centres unmarked) [E9C116A11], for which the Luciferase luminescence intensity stood at 7.6E+04.
Take `CCCCCCCCCCCC(COC(=O)C(CCCCC)CCCCCCCCCCC)OC(=O)CCCN(C)C` (centres unmarked) [E8C111A9]: the Luciferase luminescence intensity came to 4.6E+04.
Next, `CCCCCCCCCCCCC(COC(=O)C(CCCCC)CCCCCCCCC)OC(=O)CCCCN(C)C` (centres unmarked) [E9C109A11]: 3.6E+04; `CCCCCCCCCCCCCC(COC(=O)CC(CCCCCCC)CCCCCCC)OC(=O)CCCN(C)C` (centres unmarked) [E10C128A9]: 3.8E+04; `CCCCCCCCCCC(COC(=O)C(CCCCCCC)CCCCCCC)OC(=O)CCCCN(C)C` (centres unmarked) [E7C114A11]: 9.9E+04.
The figure for `CCCCCCCCCCC(COC(=O)C(CCCCCCCCC)CCCCCCCCC)OC(=O)CCCCN(C)C` (centres unmarked) [E7C116A11] is 9.2E+04.
